Structures are written as SMILES.

As a reminder, the melting point is the temperature of the solid-liquid transition.

The compound `COc1cc(OCCNC(C)=O)cc(-c2nc3cc(OC)cc(OC)c3c(=O)[nH]2)c1` came in with a melting point of 264 to 265 °C.
Then `O=C1c2ccccc2C(=O)N1CCC=Cc1csc(-c2ccccn2)n1`, with 139 to 141 °C.
Under `COc1ccc(N2CCCN(c3c(C)c(C)c4c(c3C)CC(C)(C)O4)CC2)cc1` stands 105 to 107 °C; under `OC(CCl)(Cc1ccccc1)c1ccc(-c2ccccc2)cc1` (configuration not stated), 96 °C; under `NS(=O)(=O)c1sc(Cl)cc1C(=O)CBr`, 147 to 148 °C.
Under `CCOc1ccc(-c2nnc(C(N)=O)o2)cc1` stands 188 °C; under `Cc1ccc(-c2nccc(-c3ccccc3)n2)cc1[N+](=O)[O-]`, 139 °C.
For `CCCS(=O)(=O)Nc1ccc(C(=O)CC#N)cc1`, the melting point fell in the range of 150 to 151 °C.
Under `CC(=O)Nc1ccc(N(c2ccccc2)C2(c3ccc(N(C)C)cc3)OC(=O)c3ccccc32)cc1` (configuration not stated) stands 182 to 184 °C; under `CCNC(=O)c1c(Cl)cccc1C(C)(C)C`, 121 to 123 °C; under `Fc1ccc(CC[C@H]2CNCCN2)cc1`, 112 to 114 °C.
`Cc1cc(-c2nnn(C)n2)cc(C)c1OCCCCC1Cc2cccnc2N1C` (configuration not stated): the melting point fell in the range of 54 to 57 °C.
Under `COc1ccc(C2CC(=O)N(C(=O)c3cncc(Br)c3)N2C)cc1OC1CCCC1` (configuration not stated) stands 139 to 141 °C; under `CCc1nc2c([nH]1)C(=O)N(C)CN2c1ccc(Cl)cc1Cl`, 200 to 201 °C; under `Cc1nn(-c2ccccn2)cc1COc1ccc(COc2ncccc2CC#N)cc1`, 138 to 139 °C.
Under `O=[N+]([O-])c1ccc(CCNCCc2ccc([N+](=O)[O-])cc2)cc1` stands 86 to 91 °C; under `N#Cc1cccc(-c2ccc(C#N)c(Cn3cncn3)c2)c1`, 160 to 161 °C.
`O=S(=O)(CC=C1CCCC1)c1ccccc1` returned a melting point of 68 °C.
Compound `C=C1C(=O)c2ccccc2OC1c1ccc(Cl)cc1Cl` (configuration not stated) had a melting point of 86 to 87 °C.
In turn, `CCOC(=O)CCCNC1=NS(=O)(=O)c2ccccc21` yielded a melting point of 125 to 127 °C.
Then `O=C1NC(=O)C(=Cc2ccc(SCc3ccccc3)cc2)S1`, with 237 to 238 °C.
In turn, `Clc1ccc(C2OC3(CCN(Cc4ccccc4)CC3)N3CCCCC23)cc1` (configuration not stated) displayed a melting point of 134 to 136 °C.
Under `CNC(=O)OCc1cnc2c(NC(=O)c3c(Cl)cccc3Cl)cccc2c1-n1ccnc1` stands 240 to 242 °C; under `CC(CCCC(O)(C(F)(F)F)C(F)(F)F)C1CCC2C3CC=C4CC(O)CC(O)C4(C)C3CCC12C` (configuration not stated), 201 to 202 °C.
Then `CONC(=O)c1ccc(CC(C)(C)C=O)cc1`, with 126 to 128 °C; and `S=C(NCCCCN(Cc1ccc(Cl)c(Cl)c1)c1ccccn1)NCCCn1ccnc1`, with 112 to 114 °C; and `C[C@@H](NC(=O)c1nc(-c2ccc(Cl)cc2)no1)[C@](O)(Cn1cncn1)c1ccc(F)cc1F`, with 170 to 172 °C.
Then `CNC(=O)Cc1cccc2c(C(C)C)nccc12`, with 153 to 154 °C; and `CN(C(=O)C(Cl)(Cl)Cl)c1nc(C(Cl)(Cl)Cl)ns1`, with 223 °C.
`COc1ccc2cc3c(c(-c4ccc(F)cc4)c2c1)CNC3=O` displayed a melting point of 282 to 284 °C.
Under `CC(C)N1C(=O)CCCc2cc(Nc3ncc(Cl)c(NC4C5C=CC(C5)C4C(N)=O)n3)ccc21` (configuration not stated) stands 260 °C; under `CC(C)C(NS(=O)(=O)c1ccc(-c2ccc(NC(=O)c3cc4cc(Br)ccc4o3)cc2)cc1)C(=O)O` (configuration not stated), 263 to 265 °C.
Then `CN(Cc1cc(C(F)(F)F)cc(C(F)(F)F)c1)C(=O)c1c(-c2ccc(F)cc2)c2c(c(=O)n1C)CNCC2`, with 178 to 180 °C; and `O=C(OCc1ccccc1)N1CCC(C(=O)O)(c2ccccc2)CC1`, with 142 to 144 °C; and `COCS(=O)(=O)c1ccc(C(CC2CCCC2)C(=O)O)cc1` (configuration not stated), with 184 to 187 °C.
Under `C#CCCOC(c1ccccc1)(c1ccccc1)c1ccccc1` stands 97 to 99 °C.
In turn, `CC(C)(C)n1c(=O)c2c(-c3ccc(F)cc3)ncn2c2ccccc21` gave a melting point of 135 to 137 °C.
Then `Cc1ccc(-c2cc3cc(C=O)ccc3o2)cc1`, with 162 to 164 °C.
Under `Cc1oc(-c2ccccc2)nc1COc1ccc([N+](=O)[O-])cc1F` stands 155 to 156 °C; under `CC(F)(F)c1cccc(C[C@@H](C(=O)O)[C@@H](O)c2ccc(F)cc2)c1` (racemic), 132 to 133 °C.
In turn, `O=C(O)c1cc2ccccc2n1Cc1cc([N+](=O)[O-])cc2[nH]c(=O)c(=O)[nH]c12` gave a melting point greater than 300 °C.
In turn, `OC1=CC(=NNc2ccc(F)cc2)CCC1` registered a melting point of 175 to 176 °C.
Regarding `N#Cc1c(N2CCN(C(=O)c3ccco3)CC2)c2cc(F)cnc2n(Cc2ccccc2)c1=O`, the melting point stood at 216 °C.
`O=C(O)C(=O)c1oc2cccc(OCc3ccc(F)cc3)c2c1O` showed a melting point of 195 to 200 °C.
Under `CC(C)(C)OC(=O)N1CCc2ccccc2CC1` stands 88 to 89 °C; under `Cc1cc(N2C(=O)N(CCCCCN3C(=O)N(c4ccc([N+](=O)[O-])c(C)c4)C(=O)C3(C)C)C(C)(C)C2=O)ccc1[N+](=O)[O-]`, 130 to 131 °C.
Then `CCOc1cc(Oc2ccc(S(C)(=O)=O)nc2)cc2cc(C3=NCC(CCO)S3)[nH]c12` (configuration not stated), with 147 to 148 °C.
Under `CC(C)(C)OC(=O)NCC(CC(=O)Nc1ccccc1)c1ccc(Cl)cc1` (configuration not stated) stands 165 to 167 °C; under `C/C(CCN1CCCC1c1ccc(Cl)c(Cl)c1)=N\O` (configuration not stated), 145 to 147 °C.
The compound `FC(F)(F)c1ccc2c(c1)C(Cl)Cc1c(Cl)cccc1S2` (configuration not stated) returned a melting point of 88 to 90 °C.
Then `CS(=O)(=O)Oc1ccc(=O)[nH]n1`, with 148 °C; and `CC(=O)C1CCC2C3CCC4CC(O)C(N5CCOC(C)(C)C5)CC4(C)C3C(=O)CC12C` (configuration not stated), with 163 °C.
Take `CCOC(=O)CCc1c[nH]c2cnc(-n3cnnc3)cc12`: the melting point was in the range of 215 to 218 °C.
For `COc1cccc2c(CCCNC3COc4c(F)ccc(C(N)=O)c4C3)coc12` (configuration not stated), the melting point was in the range of 163 to 166 °C.
Then `FC1CC(Nc2ncnc3[nH]ncc23)CCC1OCC(F)(F)c1ccccc1` (configuration not stated), with 178 to 179 °C; and `C[C@H]1[C@H](NSc2ccccc2[N+](=O)[O-])C(=O)N1OCc1ccccc1`, with 97 to 100 °C; and `COc1ccc(C(Cl)=NS(=O)(=O)C=Cc2ccc(Cl)c(Cl)c2)cc1OC`, with 120 to 125 °C.
`CCOC(=O)c1cn(-c2nc(NCc3ccc(OC)cc3)c(F)cc2F)c2c(Cl)c(F)c(F)cc2c1=O`: the melting point lay in the range of 197 to 200 °C.
Then `N#CC(=C1C=CC(=NOC(=O)C(Cl)(Cl)Cl)C=C1)c1ccccc1`, with 147 to 148 °C; and `COc1cc(C(=O)Nc2nc(C)c(C(=O)NCc3ccccc3)s2)ccn1`, with 188 to 190 °C; and `CCOC(=O)c1nc2scc(COCc3ccc(F)cc3)c2c(=O)[nH]1`, with 195 to 196 °C.
Under `CCOC(=O)c1sc(SC)c2c1CCC(C=O)=C2Cl` stands 79 to 80 °C.
Then `CNC(Cc1ccc2c(c1)Nc1nccnc1S2)=NC#N`, with 233 to 234 °C; and `Cc1cc([N+](=O)[O-])ccc1NC=O`, with 162 °C; and `NCCCNc1cccc2c1C(=O)c1ccccc1C2=O`, with 106 to 108 °C.
The compound `CC(O)C#Cc1ncn2c1CN(C)C(=O)c1ccccc1-2` (configuration not stated) registered a melting point of 161 to 162 °C.
Under `Nc1nc2[nH]c(CCCc3ccc(C(=O)N[C@@H](CCC(=O)O)C(=O)O)s3)cc2c(=O)[nH]1` stands 175 to 176 °C; under `C=CCN1CC(c2ccc(N)cc2F)CCS1(=O)=O` (configuration not stated), 96 °C.
Under `CCOC(=O)c1cn2c(C)c(C)nc2c(O)c1CCC(=O)c1ccccc1` stands 172 to 174 °C; under `CC(C)(C)OC(=O)N1CCCC1COC(=O)N1CCN(c2cc(N3CCCC3)nc(N3CCCC3)n2)CC1` (single isomer, unassigned; (-)), 147 °C; under `CC(=O)Nc1ccc(C(=O)NCc2ccc(-n3c(-c4cccnc4N)nc4cc(C)cnc43)cc2)cc1`, 171 to 172 °C.
The compound `Cc1cc(I)ccc1Nc1c(-c2nnc(N)o2)ccc(F)c1F` returned a melting point of 184 °C.
Under `C#CCOc1cc(-c2nn(C)c(S(C)=O)c2C)c(F)cc1Cl` (configuration not stated) stands 93 to 96 °C.
For the compound `C/C(=C\F)CN1C(=O)c2ccccc2C1=O`, the melting point is 57 to 58 °C.
Under `CCCc1nc(C)n2nc(C(=O)OCC)nc2c1Cc1ccc(-c2ccccc2C#N)cc1` stands 108 °C; under `Cc1cccc(COc2cccc(OCc3nc(-c4ccccc4)oc3C)c2)c1C(=O)O`, 144 to 145 °C; under `COCOCc1nc(-c2ccccc2)oc1CCc1ccc(OCc2nc(-c3ccccc3)oc2C)cc1`, 124 to 125 °C.
Take `CCCCC1OC(=O)c2cc(NC(C)=O)ccc21` (configuration not stated): the melting point lay in the range of 138 to 139 °C.
Then `CC(=O)c1nc(-c2ccc(O)cc2)n(C)c1C`, with 198 to 202 °C; and `CC(CO)c1ccc2c(=O)c3ccccc3ccc2c1` (configuration not stated), with 63 to 66 °C; and `CCCSP(=O)(OCC)Oc1ccc2cc3ccccc3cc2c1` (configuration not stated), with 79 to 83 °C.
Then `Cc1cnc(CS(=O)c2cc3ccccc3[nH]2)cc1N1CCCCC1` (configuration not stated), with 178 °C.
Consider `COC(=O)C1=C(C)NC(C)=C(C(=O)OCCN)C1c1cccc(Cl)c1Cl` (configuration not stated), for which the melting point was 166 to 167 °C.
Take `Cc1cccc(-n2c(-c3sc(Nc4ccccc4)nc3C)nc3ccccc3c2=O)c1`: the melting point is 198 to 201 °C.
Under `Cc1oc(-c2ccco2)nc1COc1ccc(COc2ccccc2CC(=O)O)cc1` stands 167 to 168 °C; under `Cn1c(C(F)(F)F)cc(=O)n(-c2c(F)cc(Cl)c3c2OCCC3)c1=O`, 141 to 145 °C; under `CCCC(=O)NCCCCn1c(CC)nc2c(N)nc3ccccc3c21`, 148 to 149 °C.

Source of the values: a melting point compilation (Tetko et al.; mined from patent text by program, amines drawn as free bases though some values may be those of a salt).
